Assay results taken from PMC6591457, “Staphylococcus aureus Uses the Bacilliredoxin (BrxAB)/Bacillithiol Disulfide Reductase (YpdA) Redox Pathway to Defend Against Oxidative Stress Under Infections” (Frontiers in Microbiology, 2019).

What was measured:
YpdA [1] = target: T1, YpdA (Staphylococcus aureus, UniProt A0A0H2WWS2); assay: UV-visible spectrum of purified enzyme; type: binding; conditions: co-purified flavin, absorbance peaks at 375 and 450 nm
T1 construct: gene SACOL1520; full-length, His6-tagged, pET11b, E. coli BL21(DE3) pLysS, Ni-NTA purified, prereduced with DTT
T1 sequence (A0A0H2WWS2 entry or part of it): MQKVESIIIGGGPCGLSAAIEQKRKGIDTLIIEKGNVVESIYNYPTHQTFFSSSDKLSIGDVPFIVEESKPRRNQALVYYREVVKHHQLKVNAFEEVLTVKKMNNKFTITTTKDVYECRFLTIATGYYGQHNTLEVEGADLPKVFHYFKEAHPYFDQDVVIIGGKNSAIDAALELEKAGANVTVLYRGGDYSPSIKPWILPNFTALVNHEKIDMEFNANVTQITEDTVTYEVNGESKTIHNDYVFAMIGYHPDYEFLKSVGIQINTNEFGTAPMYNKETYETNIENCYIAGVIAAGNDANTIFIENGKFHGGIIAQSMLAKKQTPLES

YpdA [2] = target: T1, YpdA; assay: NADPH consumption at […] nm; type: biochemical; conditions: 12.5 uM YpdA, 40 uM BSSB, 500 uM NADPH, 20 mM Tris, 1.25 mM EDTA, pH 8.0

| SMILES | UV-visible spectrum of purified enzyme (YpdA [1]) | NADPH consumption at 340 nm (YpdA [2]) |
| --- | --- | --- |
| Cc1cc2nc3c(=O)[nH]c(=O)nc-3n(C[C@H](O)[C@H](O)[C@H](O)COP(=O)(O)OP(=O)(O)OC[C@H]3O[C@@H](n4cnc5c(N)ncnc54)[C@H](O)[C@@H]3O)c2cc1C [FAD] | UV-visible spectrum revealed the presence of the FAD co-factor |  |
| N[C@@H](CSSC[C@H](N)C(=O)N[C@H]1[C@@H](O[C@@H](CC(=O)O)C(=O)O)O[C@H](CO)[C@@H](O)[C@@H]1O)C(=O)N[C@H]1[C@@H](O[C@@H](CC(=O)O)C(=O)O)O[C@H](CO)[C@@H](O)[C@@H]1O [BSSB] |  | Incubation of YpdA protein with BSSB resulted in significant and fast consumption of NADPH |
| NC(=O)C1=CN([C@@H]2O[C@H](COP(=O)(O)OP(=O)(O)OC[C@H]3O[C@@H](n4cnc5c(N)ncnc54)[C@H](OP(=O)(O)O)[C@@H]3O)[C@@H](O)[C@H]2O)C=CC1 [NADPH] |  | Purified YpdA is able to reduce BSSB back to BSH with electrons from NADPH |
